Tests used:
[1] = NAC as antidote for APAP overdose; cited from earlier work
[2] = Exosomal protein concentration of urine in paracetamol overdose patients (BCA protein assay); format: in vivo, human; settings: 4 hours after paracetamol overdose
Protocol: (§1) Six normal male volunteers (aged 23-40, MREC ethics approval number 06/MRE00/67) provided urine samples in sterile 50 ml plastic containers. To each urine sample a protease inhibitor was added (50:1 of 1 mM Leupeptin). […] 3 out of 6 of these patients had elevated serum alanine transaminase (ALT) 24 hours after admission indicating significant liver injury. The samples were centrifuged at 15000×g for 15 minutes at 4° C. to pellet the urinary sediment. The ‘15000×g supernatant’ was then centrifuged at 100 000 rpm for 1 hour at 4° C. to obtain low density urinary exosome pellets. The 100 000 rpm supernatant was decanted and replaced with an additional ‘15 000×g supernatant’ and ultracentrifuged again. The ultracentrifugation step was repeated 4-6 more times to harvest the exosome pellets from 18-24 ml of 15 000×g supernatant. Pellets were resuspended in 50 μl isolation solution (10 mM triethanolamine/250 mM sucrose (pH 7.6)).
(§2) The amount of urine and MP protein was determined using the BCA™ Protein Assay Kit (Pierce, USA) and following the manufacturer's instructions. 20 μg of normal urine exosome samples were loaded per well. Loading amounts for each of the paracetemol overdose samples were normalised for urinary creatinine to account for differences in urine concentration. […]

c-Jun = experiment: Western blot for c-Jun in urine exosomes of paracetamol overdose patients; format: in vivo, human; settings: following paracetamol-induced liver injury in humans, FIG. 7
Protocol: as §1, §2

## CC(=O)N[C@@H](CS)C(=O)O [N-acetylcysteine]
[1]
  patients with adverse reactions: around 15%

## CC(=O)Nc1ccc(O)cc1 [paracetamol, N-(4-hydroxyphenyl)ethanamide]
[2]; pooled sample from 3 patients with organ injury
  increase in exosomal proteinuria compared to normal: ~37 fold
[2]; pooled samples from 3 patients without organ injury
  increase in exosomal protein compared to normal healthy individuals: about 7 fold
c-Jun
  urinary microparticle concentration of C-Jun protein: increased
